Results reported in patent US12629374B2, “Antimalarial agents” (Merck Sharp & Dohme LLC, priority 2020, dated 2026).
Like-named read-outs stand apart in the source and are kept apart here.

Tested on: ring stage parasites
Test: Parasite growth potency assay, 72 hours, LDH readout
Type: cell-based
Conditions: parasite growth measured by LDH assay after 72 hours at 37° C., 0.7% rings, 2% haematocrit, read-out: EC50
Summary of the method: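 Parasite growth was quantified by LDH assay after a −80 °C freeze-thaw. Before that, compound was incubated for 72 h at 37 °C under humidified gas with ring-stage cultures adjusted to 0.7% parasitemia and 2% haematocrit in serum- and albumax-supplemented RPMI-Hepes.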

| Structure (SMILES) | EC50 (72 h) | further results |
| --- | --- | --- |
| CCC1(C)CC(=O)N([C@H](CCOC)c2cccc(C(=O)N[C@@H]3c4ccccc4C[C@H]3O)c2)C(=N)N1 (stereo partly drawn) [Example 195A, [4-ethyl-1-[(1R)-1-[3-[[(1R,2R)-2-hydroxyindan-1-yl]carbamoyl]phenyl]-3-methoxy-propyl]-4-methyl-6-oxo-hexahydropyrimidin-2-ylidene]ammonium; 2,2,2-trifluoroacetate] | 3.3 nM |  |
| CCC1(CC)CC(=O)N(C(c2cncc(C(=O)N[C@H]3CC(C)(C)Oc4ccccc43)c2)c2cncs2)C(=N)N1 (stereo partly drawn) [Example 105A, [1-[[5-[[(4S)-2,2-dimethylchroman-4-yl]carbamoyl]pyridin-1-ium-3-yl]-thiazol-5-yl-methyl]-4,4-diethyl-6-oxo-hexahydropyrimidin-2-ylidene]ammonium; 2,2,2-trifluoroacetate] | 0.5 nM |  |
| CCC[C@H](c1cccc(C(=O)N[C@@H]2c3ccccc3C[C@H]2O)c1)N1C(=N)N[C@](CC)(c2ccccc2)CC1=O [Example 71, [(4S)-4-ethyl-1-[(1R)-1-[3-[[(1R,2R)-2-hydroxyindan-1-yl]carbamoyl]phenyl]butyl]-6-oxo-4-phenyl-hexahydropyrimidin-2-ylidene]ammonium; 2,2,2-trifluoroacetate] | 9.3 nM |  |
| CCC1(CC)CC(=O)N([C@H](COCCOC)c2cccc(C(=O)NC3c4ccccc4CC3(C)O)c2)C(=N)N1 (stereo partly drawn) [Example 146B, 3-[(1S)-1-(4,4-diethyl-2-imino-6-oxo-hexahydropyrimidin-1-yl)-2-(2-methoxyethoxy)ethyl]-N-(2-hydroxy-2-methyl-indan-1-yl)benzamide] |  | EC50: 6.4 nM |
| CCC1(CC)CC(=O)N(Cc2cccc(C(=O)N[C@H]3C[C@H](C(F)(F)F)Oc4ccccc43)c2)C(=N)N1 (stereo in doubt) [Example 91A, [4,4-diethyl-6-oxo-1-[[3-[[2-(trifluoromethyl)chroman-4-yl]carbamoyl]phenyl]methyl]hexa-hydropyrimidin-2-ylidene]ammonium; 2,2,2-trifluoroacetate] |  | EC50 (trifluoroacetate): 1.9 nM |
| CC(C)[C@]1(C)CC(=O)N(Cc2cccc(C(=O)N[C@@H]3c4ccccc4C[C@@H]3O)c2)C(=N)N1 [Example 18, [(4S)-1-[[3-[[(1R,2S)-2-hydroxyindan-1-yl]carbamoyl]phenyl]methyl]-4-isopropyl-4-methyl-6-oxo-hexahydropyrimidin-2-ylidene]ammonium; 2,2,2-trifluoroacetate] | 21.5 nM |  |
| CCC1(CC)CC(=O)N([C@@H](c2cncc(F)c2)c2cccc(C(=O)N[C@H]3CC(C)(C)Oc4ccccc43)c2)C(=N)N1 [Example 99B, [1-[[3-[[(4S)-2,2-dimethylchroman-4-yl]carbamoyl]phenyl]-(5-fluoropyridin-1-ium-3-yl)methyl]-4,4-diethyl-6-oxo-hexahydropyrimidin-2-ylidene]ammonium; 2,2,2-trifluoroacetate] | 2 nM |  |
| CCC1(CC)CC(=O)N([C@H](CCOC)c2cccc(C(=O)N[C@H]3c4ccccc4C4(CC4)[C@@H]3O)c2)C(=N)N1 [Example 191B, [4,4-diethyl-1-[(1R)-1-[3-[(2′-hydroxyspiro[cyclopropane-1,3′-indane]-1′-yl)carbamoyl]phenyl]-3-methoxy-propyl]-6-oxo-hexahydropyrimidin-2-ylidene]ammonium; 2,2,2-trifluoroacetate] | 90.2 nM |  |
| CCC1(CC)CC(=O)N(Cc2cc(C#N)cc(C(=O)N[C@H]3CC(C)(C)Oc4ccccc43)c2)C(=N)N1 (stereo in doubt) [Example 89B, [1-[[3-cyano-5-[(2,2-dimethylchroman-4-yl)carbamoyl]phenyl]methyl]-4,4-diethyl-6-oxo-hexahydropyrimidin-2-ylidene]ammonium; 2,2,2-trifluoroacetate] | 1.6 nM |  |
| CCC1(CC)CC(=O)N([C@H](CCOC)c2cc(F)cc(C(=O)N[C@@H]3c4ccccc4CC3(C)O)c2)C(=N)N1 (stereo in doubt) [Example 144D, 3-[1-(4,4-diethyl-2-imino-6-oxo-hexahydropyrimidin-1-yl)-3-methoxy-propyl]-5-fluoro-N-(2-hydroxy-2-methyl-indan-1-yl)benzamide] |  | EC50: 0.9 nM |
| CC[C@]1(CC(C)C)CC(=O)N(Cc2cc(F)cc(C(=O)N[C@H]3CCOc4ccccc43)c2)C(=N)N1 [Example 46, [(4S)-1-[[3-[[(4S)-chroman-4-yl]carbamoyl]-5-fluoro-phenyl]methyl]-4-ethyl-4-isobutyl-6-oxo-hexahydropyrimidin-2-ylidene]ammonium; 2,2,2-trifluoroacetate] | 10.4 nM |  |
| CCC1(CC)CC(=O)N(Cc2cc(C(=O)N[C@@H]3c4ccccc4C[C@H]3O)ccn2)C(=N)N1 [Example 38, [4,4-diethyl-1-[[4-[[(1R,2R)-2-hydroxyindan-1-yl]carbamoyl]-2-pyridyl]methyl]-6-oxo-hexahydropyrimidin-2-ylidene]ammonium; 2,2,2-trifluoroacetate] | 31.3 nM |  |
| CCC[C@H](c1cncc(C(=O)N[C@H]2CCOc3ccccc32)c1)N1C(=N)NC(CC)(CC)CC1=O [Example 50, [1-[1-[5-[[(4S)-chroman-4-yl]carbamoyl]pyridin-1-ium-3-yl]butyl]-4,4-diethyl-6-oxo-hexahydropyrimidin-2-ylidene]ammonium; 2,2,2-trifluoroacetate] | 0.4 nM |  |
| CCC1(CC)CC(=O)N([C@H](CCOC)c2cc(F)cc(C(=O)N[C@H]3c4ccccc4CC3(C)O)c2)C(=N)N1 (single isomer, unassigned) [Example 144A, 3-[1-(4,4-diethyl-2-imino-6-oxo-hexahydropyrimidin-1-yl)-3-methoxy-propyl]-5-fluoro-N-(2-hydroxy-2-methyl-indan-1-yl)benzamide] | 81.6 nM |  |
| COCC[C@H](c1cccc(C(=O)N[C@@H]2c3cc(F)ccc3C[C@H]2O)c1)N1C(=N)NC(C)(C)CC1=O [Example 200, [1-[(1R)-1-[3-[(6-fluoro-2-hydroxy-indan-1-yl)carbamoyl]phenyl]-3-methoxy-propyl]-4,4-dimethyl-6-oxo-hexahydropyrimidin-2-ylidene]ammonium; 2,2,2-trifluoroacetate] | 7.1 nM |  |
| COCC[C@H](c1cccc(C(=O)N[C@@H]2c3ccccc3C3(CC3)[C@H]2O)c1)N1C(=N)NC(C)(C)CC1=O [Example 167, [1-[(1R)-1-[3-[(2′-hydroxyspiro[cyclopropane-1,3′-indane]-1′-yl)carbamoyl]phenyl]-3-methoxy-propyl]-4,4-dimethyl-6-oxo-hexahydropyrimidin-2-ylidene]ammonium; 2,2,2-trifluoroacetate] | 3.1 nM |  |
| CC(C)[C@]1(C)CC(=O)N([C@H](c2cccnc2)c2cccc(C(=O)N[C@H]3CC(C)(C)Oc4ccccc43)c2)C(=N)N1 [Example 101A, [(4S)-1-[[3-[[(4S)-2,2-dimethylchroman-4-yl]carbamoyl]phenyl]-pyridin-1-ium-3-yl-methyl]-4-isopropyl-4-methyl-6-oxo-hexahydropyrimidin-2-ylidene]ammonium; 2,2,2-trifluoroacetate] | 0.3 nM |  |
| CCC1(CC)CC(=O)N([C@H](c2cncnc2)c2cccc(C(=O)N[C@H]3CC(C)(C)Oc4ccccc43)c2)C(=N)N1 (stereo in doubt) [Example 92B, 3-[(4,4-diethyl-2-imino-6-oxo-hexahydropyrimidin-1-yl)-pyrimidin-5-yl-methyl]-N-(2,2-dimethylchroman-4-yl)benzamide] | 0.9 nM |  |
| COCC[C@H](c1cccc(C(=O)NC2c3cc(F)ccc3OC(C)(C)C2(C)O)c1)N1C(=N)NC(C)(C)CC1=O (stereo partly drawn) [Example 235, N-(6-fluoro-3-hydroxy-2,2,3-trimethyl-chroman-4-yl)-3-[(1R)-1-(2-imino-4,4-dimethyl-6-oxo-hexahydropyrimidin-1-yl)-3-methoxy-propyl]benzamide] | 0.32 nM |  |
| CCC1(CC)CC(=O)N([C@H](CCOC)c2cc(F)cc(C(=O)N[C@H]3c4ccccc4OC(C)(C)[C@@H]3O)c2)C(=N)N1 (stereo in doubt) [Example 129B, [4,4-diethyl-1-[1-[3-fluoro-5-[(3-hydroxy-2,2-dimethyl-chroman-4-yl)carbamoyl]phenyl]-3-methoxy-propyl]-6-oxo-hexahydropyrimidin-2-ylidene]ammonium; 2,2,2-trifluoroacetate] | 87 nM |  |
| COCC[C@H](c1cc(F)cc(C(=O)N[C@@H]2c3ccccc3C[C@@]2(C)O)c1)N1C(=N)NC(C)(C)CC1=O [Example 175A, 3-fluoro-N-[(1R,2R)-2-hydroxy-2-methyl-indan-1-yl]-5-[1-(2-imino-4,4-dimethyl-6-oxo-hexahydropyrimidin-1-yl)-3-methoxy-propyl]benzamide] |  | EC50: 37.1 nM |
| CCC1(CC)CC(=O)N(C(COC)c2cccc(C(=O)N[C@@H]3c4ccccc4OC[C@]3(C)O)c2)C(=N)N1 (stereo partly drawn) [Example 229, 3-[1-(4,4-diethyl-2-imino-6-oxo-hexahydropyrimidin-1-yl)-2-methoxy-ethyl]-N-[(3R,4R)-3-hydroxy-3-methyl-chroman-4-yl]benzamide] | 2.2 nM |  |
| CCC12CCCCCCC3COc4ccccc4C3NC(=O)c3cccc(c3)CN(C(=N)N1)C(=O)C2 (single isomer, unassigned) [Example 120B, (26-ethyl-8,29-dioxo-17-oxa-1,9,27-triazapentacyclo[24.2.2.13,7.010,19. 011,16]hentriaconta-3,5,7(31),11(16),12,14-hexaen-28-ylidene)ammonium; 2,2,2-trifluoroacetate] |  | EC50: 35.5 nM |
| CCC12CCCCCCC3COc4ccccc4C3NC(=O)c3cccc(c3)CN(C(=N)N1)C(=O)C2 (single isomer, unassigned) [Example 120D, (26-ethyl-8,29-dioxo-17-oxa-1,9,27-triazapentacyclo[24.2.2.13,7.010,19. 011,16]hentriaconta-3,5,7(31),11(16),12,14-hexaen-28-ylidene)ammonium; 2,2,2-trifluoroacetate] |  | EC50: 27.6 nM |
